Source: patent US8735387B2, “Oxazolopyrimidines as Edg-1 receptor agonists” (Sanofi, priority 2008, dated 2014)

Biological target: T1, human Edg-1 receptor (Homo sapiens, UniProt P21453)
T1 construct: expressed in transfected cells; membrane preparation
Assay: GTP-γ-S assay using human Edg-1 receptors (scintillation proximity assay, membrane preparation from CHO Flp-In cell line)
Type: biochemical
Conditions: example compound at 10 μM; relative to 10 μM S1P; GTP-γ-S SPA, human Edg-1 membranes
From the text: Determination of the Pharmacological Activity A) GTP-γ-S Assay Using Human Edg-1 Receptors
In order to determine the Edg-1 receptor activation by the compounds of the invention, a GTP-γ-S (guanosine 5′-[γ-thio]triphosphate) assay for G-protein coupled receptor binding based on the scintillation proximity assay principle was used, employing a cell membrane preparation from a CHO Flp-In cell line which constitutively overexpresses the human Edg-1 receptor.
The Flp-In™ expression system (Invitrogen, cat. no. K6010-01) allows the generation of stable mammalian cell lines into which the gene of interest has been integrated through homologous recombination at a specific genomic location called Flp Recombination Target (FRT) site by means of a Flp recombinase encoded by the pOG44 expression plasmid. The integration of the pcDNA5/FRT expression construct into the Flp-In host cell line genome results in the transcription of the gene of interest. The stably transfected cells become hygromycin-resistant.
One day prior to transfection, 200 000 Flp-In-CHO cells were seeded in Ham F-12 medium (Invitrogen, cat. no. 31765) supplemented with 10% fetal calf serum (FCS; Perbio Science, cat. no. SH30068.03) in a 6-well plate and incubated at 37° C./5% CO2 overnight. Using the FuGENE® 6 transfection reagent (Roche, cat. no. 11988387001), cells were cotransfected with the Flp recombinase expression plasmid pOG44 and a modified plasmid additionally containing the edg-1 gene (accession no. NM_001400) termed as pcDNA5-FRT-TO_nFLAG_DEST-EDG-1 with a 9:1 ratio. To obtain the modified pcDNA5-FRT-TO_nFLAG_DEST plasmid, the Invitrogen plasmid pcDNA5/FRT/TO (Invitrogen, cat. no. V6520-20) was adapted to the Gateway® (Invitrogen) cloning system by inserting a Gateway cassette containing attR recombination sites flanking a ccdB gene and a chloramphenicol-resistance gene (Gateway conversion system, Invitrogen, cat. no. 11828-029). In addition a FLAG tag epitope was added before the 5′ att recombination site to allow recombinant expression of N-terminally FLAG-tagged proteins.
For the transfection of one well, 1.08 μg of pOG44 and 0.12 μg of pcDNA5-FRT-TO_nFLAG_DEST-EDG-1 were mixed to 100 μl of serum-free Ham F-12 medium containing 6 μl of FuGENE® 6 transfection reagent. After 20 min of incubation, the transfection reagent/DNA complex was distributed dropwise on the cells. The cells were incubated for 24 h at 37° C. Then the cells from 3 wells each were transferred to a T75 flask (Greiner Cellstar®, cat. no. 658175) containing Ham F-12 medium supplemented with 10% of FCS but without antibiotic and were incubated another 24 h. 48 h after transfection, the medium was replaced by selection medium (Ham F-12 supplemented with 10% of FCS and 300 μg/ml of hygromycin B (Invitrogen, cat. no. 10687-010)). The medium was exchanged every 2 to 3 days until a resistant population of cells had grown. […] After 2 weeks of selection, the cells were transferred into T175 flasks (Greiner Cellstar®, cat. no. 660175) and cultivated for batch production. Cells were harvested from the culture flasks by short treatment (2 to 5 min) with Accutase (PAA, cat. no. L11-007), resuspended in selection medium (see above) and centrifuged at 200×g for 5 min. Cells were resuspended in a mixture of 90% of FCS and 10% of dimethylsulfoxide and stored frozen in liquid nitrogen.
A membrane preparation was obtained by standard methods from the afore-described CHO Flp-In cell line constitutively overexpressing the human Edg-1 receptor. Briefly, the cryopreserved cells were taken in culture and grown until confluency in T175 cell culture flasks (Becton Dickinson, cat. no. 35 5001). […]

T1 sequence (P21453 whole entry): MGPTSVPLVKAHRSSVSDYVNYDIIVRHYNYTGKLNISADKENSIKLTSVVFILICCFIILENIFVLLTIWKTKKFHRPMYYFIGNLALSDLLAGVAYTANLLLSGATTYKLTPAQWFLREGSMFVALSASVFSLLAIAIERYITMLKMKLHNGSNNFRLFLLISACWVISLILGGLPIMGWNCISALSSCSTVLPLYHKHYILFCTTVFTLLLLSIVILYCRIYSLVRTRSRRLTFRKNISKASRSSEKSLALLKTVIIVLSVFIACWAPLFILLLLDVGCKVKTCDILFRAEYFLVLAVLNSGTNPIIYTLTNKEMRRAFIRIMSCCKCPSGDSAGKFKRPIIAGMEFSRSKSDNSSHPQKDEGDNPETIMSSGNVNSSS

Compared with `CCOc1nc(Cc2ccc(Cl)cc2)nc2oc(-c3cc(C)c(OCC(O)CN)c(C)c3)nc12` (centres unmarked) [Example 263], `CCOc1nc(Cc2ccc(Cl)cc2)nc2oc(-c3cc(C)c(OCC(O)C[S+]([O-])c4ncn[nH]4)c(C)c3)nc12` (centres unmarked) [Example 286] is lower in “% Activation (Edg-1 receptor activation in percent of the activation by 10 μM S1P)” value: 138% for the first, 114% for the second.

First: CCCOc1nc(CN2CCCC2(F)F)nc2oc(-c3cccc(F)c3)nc12 [Example 95]
Second: CCCOc1nc(CN2CCSC2)nc2oc(-c3cccc(F)c3)nc12 [Example 64]
The “% Activation (Edg-1 receptor activation in percent of the activation by 10 μM S1P)” value of the first is higher: 105% for the first, 93% for the second.

Compared with `CCCOc1nc(Cc2ccc(Cl)cc2)nc2oc(-c3cncnc3)nc12` [Example 174], `CCCOc1nc(Cc2ccc(Cl)cc2)nc2oc(-c3ccc(O)c(F)c3)nc12` [Example 152] is higher in “% Activation (Edg-1 receptor activation in percent of the activation by 10 μM S1P)” value: 75% for the first, 100% for the second.

Going from `CCOc1nc(Cc2ccc(Cl)cc2)nc2oc(-c3cccc(OCC(=O)NCCC(=O)O)c3)nc12` [Example 298] to `CCOc1nc(Cc2ccc(Cl)cc2)nc2oc(-c3cccc(OCC(=O)O)c3)nc12` [Example 310], the “% Activation (Edg-1 receptor activation in percent of the activation by 10 μM S1P)” value falls from 92% to 87%.

Going from `CCCOc1nc(Cc2ccc(Cl)cc2)nc2oc(-c3cc(C)c(OCC(=O)N4CC[C@@H](O)C4)c(C)c3)nc12` [Example 232] to `CCCOc1nc(Cc2ccc(Cl)cc2)nc2oc(-c3cc(C)c(OCC(=O)OC)c(C)c3)nc12` [Example 248], the “% Activation (Edg-1 receptor activation in percent of the activation by 10 μM S1P)” value falls from 125% to 89%.

First: CCOc1nc(Cc2ccc(Cl)cc2)nc2oc(-c3cc(C)c(OCCC[S+]([O-])c4ncn[nH]4)c(C)c3)nc12 (centres unmarked) [Example 292]
Second: CCOc1nc(Cc2ccc(Cl)cc2)nc2oc(-c3cc(C)c(OCCCS(=O)(=O)c4ncn[nH]4)c(C)c3)nc12 [Example 295]
The “% Activation (Edg-1 receptor activation in percent of the activation by 10 μM S1P)” value of the first is lower: 86% for the first, 100% for the second.

First: CCCOc1nc(CN2CCCOCC2)nc2oc(-c3cc(F)cc(F)c3)nc12 [Example 26]
Second: CCCOc1nc(CN2CCOCC2)nc2oc(-c3cccc(C)c3)nc12 [Example 38]
The “% Activation (Edg-1 receptor activation in percent of the activation by 10 μM S1P)” value of the first is higher: 123% for the first, 114% for the second.

First: CCCOc1nc(Cc2ccc(Cl)cc2)nc2oc(-c3ccc(N4CCOCC4)nc3)nc12 [Example 148]
Second: Clc1ccc(Cc2nc(OCC3CC3)c3nc(-c4ccc(N5CCOCC5)nc4)oc3n2)cc1 [Example 139]
The “% Activation (Edg-1 receptor activation in percent of the activation by 10 μM S1P)” value of the first is lower: 41% for the first, 87% for the second.

Compared with `CCOc1nc(Cc2ccc(Cl)cc2)nc2oc(-c3ccc(OCC(=O)NCCN4CCOCC4)c(F)c3)nc12` [Example 279], `CCOc1nc(Cc2ccc(Cl)cc2)nc2oc(-c3cc(C)c(OCC(=O)NCCC(=O)O)c(C)c3)nc12` [Example 314] is higher in “% Activation (Edg-1 receptor activation in percent of the activation by 10 μM S1P)” value: 77% for the first, 96% for the second.

Going from `CCCOc1nc(CN2CCC(F)(F)CC2)nc2oc(-c3ccc(Br)o3)nc12` [Example 98] to `CCCOc1nc(CN2CCC(=O)C(C(=O)OC)C2)nc2oc(-c3cccc(F)c3)nc12` (centres unmarked) [Example 134], the “% Activation (Edg-1 receptor activation in percent of the activation by 10 μM S1P)” value falls from 120% to 78%.

Going from `CCCOc1nc(Cc2ccc(Cl)cc2)nc2oc(-c3cccc(OC)c3)nc12` [Example 129] to `CCCOc1nc(Cc2ccc(Cl)cc2)nc2oc(-c3ccc(Cl)c(C)c3)nc12` [Example 169], the “% Activation (Edg-1 receptor activation in percent of the activation by 10 μM S1P)” value falls from 108% to 87%.

First: CCOc1nc(Cc2ccc(Cl)cc2)nc2oc(-c3cc(C)c(OCC(O)CNCCCNS(C)(=O)=O)c(C)c3)nc12 (centres unmarked) [Example 280]
Second: CCOc1nc(Cc2ccc(Cl)cc2)nc2oc(-c3cc(C)c(OCC(=O)NCCS(N)(=O)=O)c(C)c3)nc12 [Example 287]
The “% Activation (Edg-1 receptor activation in percent of the activation by 10 μM S1P)” value of the first is lower: 53% for the first, 112% for the second.

Going from `CCCOc1nc(Cc2ccc(Cl)cc2)nc2oc(-c3cc(C)c(OCCCN[C@@H](CCSC)C(=O)OC)c(C)c3)nc12` [Example 229] to `CCCOc1nc(Cc2ccc(Cl)cc2)nc2oc(-c3cc(C)c(OCCCC(=O)O)c(C)c3)nc12` [Example 251], the “% Activation (Edg-1 receptor activation in percent of the activation by 10 μM S1P)” value rises from 70% to 112%.

First: C=CCOc1nc(Cc2ccc(Cl)cc2)nc2oc(-c3cccc(C)c3)nc12 [Example 116]
Second: CCOc1nc(Cc2ccc(Cl)cc2)nc2oc(-c3cccc(OCC(=O)N4CCC[C@@H]4C(=O)O)c3)nc12 [Example 269]
The “% Activation (Edg-1 receptor activation in percent of the activation by 10 μM S1P)” value of the first is higher: 136% for the first, 69% for the second.

Compared with `CCOc1nc(Cc2ccc(Cl)cc2)nc2oc(-c3cc(C)c(OCC(=O)N4CCC[C@H]4C(=O)O)c(C)c3)nc12` [Example 311], `CCOc1nc(Cc2ccc(Cl)cc2)nc2oc(-c3cc(C)c(OCC(=O)N4CC(C(=O)OC)C4)c(C)c3)nc12` [Example 246] is higher in “% Activation (Edg-1 receptor activation in percent of the activation by 10 μM S1P)” value: 78% for the first, 111% for the second.

First: CCCOc1nc(Cc2ccc(Cl)cc2)nc2oc(-c3cc(C)c(OCC(=O)NCc4ccco4)c(C)c3)nc12 [Example 252]
Second: CCCOc1nc(Cc2ccc(Cl)cc2)nc2oc(-c3cc(C)c(OCC(=O)OCC(=O)O)c(C)c3)nc12 [Example 247]
The “% Activation (Edg-1 receptor activation in percent of the activation by 10 μM S1P)” value of the first is lower: 102% for the first, 110% for the second.

Going from `CCCOc1nc(Cn2cncn2)nc2oc(-c3cccc(F)c3)nc12` [Example 204] to `CCCOc1nc(Cn2cncc2C(=O)OC)nc2oc(-c3cccc(F)c3)nc12` [Example 60], the “% Activation (Edg-1 receptor activation in percent of the activation by 10 μM S1P)” value falls from 79% to 64%.

Compared with `CCCOc1nc(Cc2ccc(Cl)cc2)nc2oc(-c3cc(C)c(OCC(O)CNC(=O)CC(C)C)c(C)c3)nc12` (centres unmarked) [Example 220], `CCCOc1nc(Cc2ccc(Cl)cc2)nc2oc(-c3ccc(OCC(O)CNC4CCCCC4)c(Cl)c3)nc12` (centres unmarked) [Example 211] is higher in “% Activation (Edg-1 receptor activation in percent of the activation by 10 μM S1P)” value: 69% for the first, 112% for the second.

Same assay, conditions: example compound at 10 μM; relative to 10 μM S1P; GTP-γ-S SPA, human Edg-1 membranes; read-out: % Activation (Edg-1 receptor activation in percent of the activation by 10 μM S1P)

Going from `CCCOc1nc(Cc2ccc(Cl)cc2)nc2oc(-c3cc(C)c(OCC(=O)NCC(=O)O)c(C)c3)nc12` [Example 199, (2-{4-[5-(4-Chloro-benzyl)-7-propoxy-oxazolo[5,4-d]pyrimidin-2-yl]-2,6-dimethyl-phenoxy}-acetylamino)-acetic acid] to `CCOc1nc(Cc2ccc(Cl)cc2)nc2oc(-c3cc(C)c(OCC(O)CSc4nnc(C(C)C)[nH]4)c(C)c3)nc12` (centres unmarked) [Example 196, 1-{4-[5-(4-Chloro-benzyl)-7-ethoxy-oxazolo[5,4-d]pyrimidin-2-yl]-2,6-dimethyl-phenoxy}-3-(5-isopropyl-4H-[1,2,4]triazol-3-ylsulfanyl)-propan-2-ol], the activation at 10 µM falls from 112% to 83%.

Compared with `CCCOc1nc(CCc2ccc(OC)cc2)nc2oc(-c3cccc(C)c3)nc12` [Example 8, 5-[2-(4-methoxy-phenyl)-ethyl]-2-(3-methyl-phenyl)-7-propoxy-oxazolo[5,4-d]pyrimidine], `CCCOc1nc(Cc2ccc(Cl)cc2)nc2oc(-c3cccc(F)c3)nc12` [Example 5, 5-(4-Chloro-benzyl)-2-(3-fluoro-phenyl)-7-propoxy-oxazolo[5,4-d]pyrimidine] is higher in activation at 10 µM: 51% for the first, 98% for the second.

`CCCOc1nc(CN2CCOCC2)nc2oc(-c3ccco3)nc12` [Example 2, 2-Furan-2-yl-5-morpholin-4-ylmethyl-7-propoxy-oxazolo[5,4-d]pyrimidine] was tested, and the activation at 10 µM was 80%.
